Broadly, the inhibition is the relative decrease from the control value, in per cent. As a reminder, the residual activity is what remains of the control signal, in per cent. Broadly, the IC50 is the concentration at which inhibition is half-maximal.

Calls of active or inactive are those of the source. The calls are words filed in the database; no cut-off is given here.

The target of data set [1] is T1, mRNA cap guanine-N(7) methyltransferase (Homo sapiens, UniProt O43148). The settings on record: dose 5.0 µM, time 30.0 min.
The target of data set [2] is Replicase polyprotein 1ab (Severe acute respiratory syndrome-related coronavirus) (UniProt P0C6X7). Particulars: dose 5.0 µM, time 30.0 min.
The target of data set [3] is Nonstructural protein 5 (Dengue virus) (UniProt V5TFZ2). Particulars: dengue virus type 3; dose 5.0 µM, time 30.0 min.
Data set [4] addresses Replicase polyprotein 1ab (Severe acute respiratory syndrome coronavirus 2) (UniProt P0DTD1). The settings on record: dose 5.0 µM, time 30.0 min, values are per cent of control.
In data set [5] the target is Replicase polyprotein 1ab (Severe acute respiratory syndrome coronavirus 2, UniProt P0DTD1).
A further data set deals with SARS-CoV-2. Nature of the data set: Antiviral activity against SARS-CoV-2 B.1 infected in Green monkey VeroE6/TMPRSS2 cells assessed as viral replication inhibition at 10 uM incubated for 2 days by qRT-PCR analysis relative to control. Format: functional. (In general: Real-time PCR tracks product formation cycle by cycle.)
Data set [6] in a line: Cytotoxicity against Green monkey VeroE6/TMPRSS2 cells assessed as reduction in cell viability upto 10 uM by CellTiter Blue assay. The format is toxicity, cell-based. The settings on record: chlorocebus sabaeus, veroe6/tmprss2, 10 µM. A general note: Resazurin is reduced to fluorescent resorufin, in cell work by metabolically active cells.
A further data set concerns the target Nonstructural protein 5 (Dengue virus, UniProt V5TFZ2). Set-up: species or system dengue virus type 3.
Data set [7] relates to Severe acute respiratory syndrome coronavirus 2. The settings on record: time 30.0 min.
Data set [8] has as its target T1, mRNA cap guanine-N(7) methyltransferase.
Data set [9] deals with Replicase polyprotein 1ab (Severe acute respiratory syndrome-related coronavirus, UniProt P0C6X7).
The mark [10] stands for this setting: Severe acute respiratory syndrome coronavirus 2, time 2.0 day.

T1 sequence (O43148 whole entry): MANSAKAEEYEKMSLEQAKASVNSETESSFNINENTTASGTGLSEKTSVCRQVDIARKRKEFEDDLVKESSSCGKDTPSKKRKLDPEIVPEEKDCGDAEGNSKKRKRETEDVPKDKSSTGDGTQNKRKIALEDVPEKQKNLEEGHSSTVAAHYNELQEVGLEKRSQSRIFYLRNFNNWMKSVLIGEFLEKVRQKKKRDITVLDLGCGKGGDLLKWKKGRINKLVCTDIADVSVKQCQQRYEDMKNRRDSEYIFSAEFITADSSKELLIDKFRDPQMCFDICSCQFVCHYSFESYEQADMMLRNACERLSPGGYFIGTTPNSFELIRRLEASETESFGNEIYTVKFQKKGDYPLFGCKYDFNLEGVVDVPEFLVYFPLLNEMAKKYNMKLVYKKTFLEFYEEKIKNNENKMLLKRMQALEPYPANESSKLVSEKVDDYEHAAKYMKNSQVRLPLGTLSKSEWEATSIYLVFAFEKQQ

Consider `CNc1ncnc2c1ncn2[C@@H]1O[C@H](CNS(=O)(=O)c2ccc(OC)c([N+](=O)[O-])c2)[C@@H](O)[C@H]1O`, for which the inhibition result in data set [1] and in [3] was “inactive” in each case. In data set [2], this compound registered an inhibition of 41.9%. The compound also gave a residual activity in data set [4] of 31.5%. The concentration for half-maximal inhibition (IC50) in [5] worked out at 573 nM.

For `CN(C[C@H]1O[C@@H](n2cc(C#Cc3ccccc3)c3c(N)ncnc32)[C@H](O)[C@@H]1O)S(=O)(=O)c1ccc(Br)c([N+](=O)[O-])c1`, the inhibition in [1] is 95.9%; in data set [2], 3.3%; in data set [3], 96.9%. Further, in the data set on SARS-CoV-2 (setting [10]), the result was inactive. In addition, the Activity result in data set [6] is given as “Non-Toxic”. The residual activity in [4] is 5%. The IC50 in data set [5] worked out at 17.3 nM.

For `COc1ccc(S(=O)(=O)NC[C@H]2O[C@@H](n3cnc4c(=O)[nH]cnc43)[C@H](O)[C@@H]2O)cc1C#N`, the inhibition result in [1] and in data set [3] was “inactive” each time. In data set [2], the inhibition is 98.4%. For the same compound, in data set [4], the residual activity was found to be 86%.

For `Cc1ccc(S(=O)(=O)N(C)C[C@H]2O[C@@H](n3cc(C#Cc4cnc5ccccc5c4)c4c(N)ncnc43)[C@H](O)[C@@H]2O)cc1[N+](=O)[O-]`, the inhibition in [1] is 86.7%; in [2], 1.9%; in [3], 96%. Moreover, the Activity in the data set with SARS-CoV-2 (time 2 day) is listed as 50%; in [6] it was “Non-Toxic”. This compound also registered a residual activity in [4] of 4.2%. Also, in data set [5], the concentration for half-maximal inhibition (IC50) was found to be 2.1 nM.

In the case of `CNc1ncnc2c1ncn2[C@@H]1O[C@H](CNS(=O)(=O)c2ccc(OC)c(C#N)c2)[C@@H](O)[C@H]1O`, the inhibition entry in data set [1] and in data set [7] was “inactive” each time. Further, the concentration for half-maximal inhibition (IC50) result against Nonstructural protein 5 is “Not Active”; in data set [8], 56200 nM; in [5] it was 468 nM; in [9], 3990 nM. This compound also showed an inhibition in data set [2] of 45.1%. This compound gave a residual activity in [4] of 25.4%.

With `COc1ccc(S(=O)(=O)NC[C@H]2O[C@@H](n3cnc4c(=O)[nH]cnc43)[C@H](O)[C@@H]2O)cc1[N+](=O)[O-]`, the inhibition entry in [1] and in data set [3] was “inactive” in each case. Also, the inhibition in data set [2] turned out to be 91.7%. The same compound had a residual activity in data set [4] of 93.6%.

In the case of `CNc1ncnc2c1ncn2[C@@H]1O[C@H](CNS(=O)(=O)c2ccc(C)c(Cl)c2)[C@@H](O)[C@H]1O`, the figures for the inhibition in data set [1] and in [2] were 92% and 53.5%, respectively. In [3], the inhibition entry was “inactive”. This compound also returned a residual activity in data set [4] of 45.4%. Moreover, the IC50 in [5] came out at 2180 nM.

Take `Cc1ccc(S(=O)(=O)N(C)C[C@H]2O[C@@H](n3cc(C#Cc4ccccc4)c4c(N)ncnc43)[C@H](O)[C@@H]2O)cc1[N+](=O)[O-]`: the inhibition result in data set [1] is “inactive”. Moreover, the inhibition in data set [2] came out at 1%; in data set [3], 93.3%. Also, the result with SARS-CoV-2 (setting [10]) was inactive. Moreover, the Activity result in data set [6] is “Non-Toxic”. The residual activity in data set [4] was 1%. In addition, the midpoint of inhibition in [5], the IC50, lay at 9.5 nM.

Regarding `CNc1ncnc2c1ncn2[C@@H]1O[C@H](CNS(=O)(=O)c2ccc(Br)c([N+](=O)[O-])c2)[C@@H](O)[C@H]1O`, the inhibition in data set [1] was determined as 57%; in [2], 54%; in data set [3] it was 78.1%. For the same compound, the residual activity in data set [4] is 33.8%. In data set [5], this compound displayed a concentration for half-maximal inhibition (IC50) of 3410 nM.

As to `COc1ccc(S(=O)(=O)N(C)C[C@H]2O[C@@H](n3cc(C#Cc4cnc5ccccc5c4)c4c(N)ncnc43)[C@H](O)[C@@H]2O)cc1[N+](=O)[O-]`, the inhibition in data set [1] came out at 49.9%; in data set [2], 0.8%. Besides, the Activity was 50% with SARS-CoV-2 (time 2 day) and “Non-Toxic” in data set [6]. For the same compound, in [3], the inhibition result was “inactive”. In addition, the residual activity in [4] is 0%. The half-maximal inhibitory concentration (IC50) in [5] was 1.3 nM.

For `CN(C[C@H]1O[C@@H](n2cc(C#Cc3cnc4ccccc4c3)c3c(N)ncnc32)[C@H](O)[C@@H]1O)S(=O)(=O)c1ccc(Br)c([N+](=O)[O-])c1`, the results for the inhibition in data set [1] and in [2] were 52.3% and 5.5%, respectively. Further, the Activity with SARS-CoV-2 (time 2 day) is 50%; in [6], “Non-Toxic”. The inhibition entry in data set [3] was “inactive”. In data set [4], this compound had a residual activity of 5.4%. Further, in [5], half-maximal inhibition (IC50) required 3.5 nM.

Turning to `CCN(C[C@H]1O[C@@H](n2cnc3c(NC)ncnc32)[C@H](O)[C@@H]1O)S(=O)(=O)c1ccc(C)c(Cl)c1`, the inhibition in data set [1] came to 78%; in data set [2] it was 10.9%. Also, in data set [3], the inhibition entry was “inactive”. The same compound displayed a residual activity in [4] of 8.3%. In [5], this compound came in with a 50% inhibitory concentration (IC50) of 130 nM.

On to `CCN(C[C@H]1O[C@@H](n2cnc3c(=O)[nH]cnc32)[C@H](O)[C@@H]1O)S(=O)(=O)c1ccc(OC)c(C#N)c1`, for which the inhibition in [1] was 88.9%; in [2], 48.1%; in data set [3] it was 89.8%. The residual activity in data set [4] amounted to 30.7%. In [5], this compound displayed an IC50 of 4000 nM.

In the case of `CCN(C[C@H]1O[C@@H](n2cnc3c(NC)ncnc32)[C@H](O)[C@@H]1O)S(=O)(=O)c1ccc(OC)c(C#N)c1`, the values for the inhibition in data set [1] and in data set [2] were 55.9% and 4.3%, respectively. Besides, the half-maximal inhibitory concentration (IC50) result was “Not Active” against Nonstructural protein 5, 16100 nM in data set [8], 62 nM in data set [5] and 51.7 nM in [9]. Besides, in data set [4], the residual activity worked out at 4.2%.

Turning to `COc1ccc(S(=O)(=O)N(C)C[C@H]2O[C@@H](n3cc(C#Cc4ccccc4)c4c(N)ncnc43)[C@H](O)[C@@H]2O)cc1[N+](=O)[O-]`, in data set [1], the inhibition entry is “inactive”. For the same compound, the results for the inhibition in data set [2] and in data set [3] were 0.5% and 91.6%, respectively. Moreover, in the data set with SARS-CoV-2 (setting [10]), the outcome was inactive. The Activity entry in data set [6] is listed as “Non-Toxic”. Also, the residual activity in data set [4] is 0%. The same compound displayed an IC50 in [5] of 2.8 nM.

Regarding `Cc1ccc(S(=O)(=O)N(C)C[C@H]2O[C@@H](n3cc(C#Cc4cnc5ccccc5c4)c4c(N)ncnc43)[C@H](O)[C@@H]2O)cc1Cl`, the inhibition in data set [1] came to 90.7%; in [2] it was 1.5%; in data set [3], 97.7%. The Activity in the data set on SARS-CoV-2 (time 2 day) was 50%; in data set [6], “Non-Toxic”. Also, the residual activity in [4] stood at 3.2%. In data set [5], this compound came in with a concentration for half-maximal inhibition (IC50) of 2.07 nM.

On to `CCN(C[C@H]1O[C@@H](n2cnc3c(=O)[nH]cnc32)[C@H](O)[C@@H]1O)S(=O)(=O)c1ccc(Cl)c(C)c1`, for which the inhibition entry in data set [1] and in [3] was “inactive” throughout. In [2], the inhibition was determined as 91%. Moreover, in [4], the residual activity amounted to 75.5%.

As to `CCN(C[C@H]1O[C@@H](n2cnc3c(NC)ncnc32)[C@H](O)[C@@H]1O)S(=O)(=O)c1ccc(C)c([N+](=O)[O-])c1`, in data set [1], the inhibition entry is “inactive”. Also, the inhibition was found to be 20.1% in data set [2] and 97.1% in [3]. The residual activity in data set [4] came to 10.9%. Also, the IC50 in data set [5] was determined as 187 nM.

Turning to `Cc1ccc(S(=O)(=O)N(C)C[C@H]2O[C@@H](n3cc(C#Cc4ccccc4)c4c(N)ncnc43)[C@H](O)[C@@H]2O)cc1Cl`, in data set [1], the inhibition entry is “inactive”. Also, the inhibition was 2.4% in data set [2] and 94.8% in data set [3]. For the same compound, the outcome in the data set with SARS-CoV-2 (setting [10]) was inactive. The Activity entry in [6] is given as “Non-Toxic”. This compound also returned a residual activity in data set [4] of 7%. Moreover, in [5], inhibition was half-maximal at 25.6 nM (IC50).

Take `CCN(C[C@H]1O[C@@H](n2cnc3c(=O)[nH]cnc32)[C@H](O)[C@@H]1O)S(=O)(=O)c1ccc(OC)c([N+](=O)[O-])c1`: the inhibition result in [1] was “inactive”. For the same compound, the inhibition in data set [2] is 69.8%; in data set [3], 86.4%. The compound also yielded a residual activity in data set [4] of 56.4%.

As for `CCN(C[C@H]1O[C@@H](n2cnc3c(NC)ncnc32)[C@H](O)[C@@H]1O)S(=O)(=O)c1ccc(Br)c([N+](=O)[O-])c1`, in data set [1], the inhibition result was “inactive”. In addition, the inhibition in [2] turned out to be 29.5%; in data set [3] it was 98%. The residual activity in data set [4] amounted to 15.2%. For the same compound, 383 nM corresponded to half-maximal inhibition in data set [5] (IC50).

Take `Cc1cc(S(=O)(=O)NC[C@H]2O[C@@H](n3cnc4c(=O)[nH]cnc43)[C@H](O)[C@@H]2O)ccc1Cl`: the inhibition result in data set [1] and in [3] was “inactive” each time. The compound also had an inhibition in [2] of 71.8%. Also, the residual activity in [4] came to 87.6%.

As to `CCN(C[C@H]1O[C@@H](n2cnc3c(NC)ncnc32)[C@H](O)[C@@H]1O)S(=O)(=O)c1ccc(OC)c([N+](=O)[O-])c1`, the results for the inhibition in [1], in data set [2] and in [3] were 73.3%, 16.4% and 90%, respectively. In addition, the residual activity in [4] was found to be 10.3%. Besides, half-maximal inhibition in data set [5] (IC50) required 274 nM.

As for `CCN(C[C@H]1O[C@@H](n2cnc3c(N)ncnc32)[C@H](O)[C@@H]1O)S(=O)(=O)c1ccc(OC)c(C#N)c1`, the inhibition in [1] is 69.5%; in data set [2] it was 4.2%. Moreover, the inhibition entry in data set [3] was “inactive”.

Regarding `CNc1ncnc2c1ncn2[C@@H]1O[C@H](CNS(=O)(=O)c2ccc(C)c([N+](=O)[O-])c2)[C@@H](O)[C@H]1O`, the results for the inhibition in [1], in data set [2] and in data set [3] were 66.4%, 66.4% and 76.6%, respectively. This compound also gave a residual activity in data set [4] of 38.7%. Besides, the IC50 in data set [5] was found to be 2850 nM.

(Values after ChEMBL document CHEMBL5370550, “Structure-guided optimization of adenosine mimetics as selective and potent inhibitors of coronavirus nsp14 N7-methyltransferases” (Eur J Med Chem, 2023).)
